Measured values published in patent US20230286970A1, “NOVEL OXADIAZOLE-BASED SELECTIVE HDAC6 INHIBITORS” (ITALFARMACO S.P.A., priority 2020, published 2023).

Tests used:
recombinant human HDAC6 = recombinant human HDAC6 (Homo sapiens (Human), UniProt Q9UBN7); assay: Enzymatic screening, HDAC6 inhibition (fluorogenic FdL_G substrate); format: biochemical
Method in brief: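 Enzyme was preincubated with compound (8 doses, triplicate, 1% DMSO) in 25 mM Tris-HCl pH 8, 130 mM NaCl, 0.05% Tween-20, 10% glycerol, with BSA. A FLUOR DE LYS-Green substrate was then added, and fluorescence was read after developer plus 2 μM TSA.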

recombinant human HDAC1 = recombinant human HDAC1 (Homo sapiens (Human), UniProt Q13547); assay: Enzymatic screening, HDAC1 inhibition (fluorogenic FdL_G substrate); format: biochemical
Method in brief: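 Recombinant human HDAC1 inhibition was measured fluorometrically using the FLUOR DE LYS-Green (FdL_G) substrate. Compounds at 8 doses (1% DMSO final) in Tris-HCl pH 8 buffer with NaCl, Tween-20 and glycerol were preincubated in triplicate with enzyme and 1 mg/mL BSA, then given substrate. Developer I plus 2 μM TSA was added, and fluorescence read after 25 minutes in the dark.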

recombinant human HDAC6, sequence (Q9UBN7 whole entry): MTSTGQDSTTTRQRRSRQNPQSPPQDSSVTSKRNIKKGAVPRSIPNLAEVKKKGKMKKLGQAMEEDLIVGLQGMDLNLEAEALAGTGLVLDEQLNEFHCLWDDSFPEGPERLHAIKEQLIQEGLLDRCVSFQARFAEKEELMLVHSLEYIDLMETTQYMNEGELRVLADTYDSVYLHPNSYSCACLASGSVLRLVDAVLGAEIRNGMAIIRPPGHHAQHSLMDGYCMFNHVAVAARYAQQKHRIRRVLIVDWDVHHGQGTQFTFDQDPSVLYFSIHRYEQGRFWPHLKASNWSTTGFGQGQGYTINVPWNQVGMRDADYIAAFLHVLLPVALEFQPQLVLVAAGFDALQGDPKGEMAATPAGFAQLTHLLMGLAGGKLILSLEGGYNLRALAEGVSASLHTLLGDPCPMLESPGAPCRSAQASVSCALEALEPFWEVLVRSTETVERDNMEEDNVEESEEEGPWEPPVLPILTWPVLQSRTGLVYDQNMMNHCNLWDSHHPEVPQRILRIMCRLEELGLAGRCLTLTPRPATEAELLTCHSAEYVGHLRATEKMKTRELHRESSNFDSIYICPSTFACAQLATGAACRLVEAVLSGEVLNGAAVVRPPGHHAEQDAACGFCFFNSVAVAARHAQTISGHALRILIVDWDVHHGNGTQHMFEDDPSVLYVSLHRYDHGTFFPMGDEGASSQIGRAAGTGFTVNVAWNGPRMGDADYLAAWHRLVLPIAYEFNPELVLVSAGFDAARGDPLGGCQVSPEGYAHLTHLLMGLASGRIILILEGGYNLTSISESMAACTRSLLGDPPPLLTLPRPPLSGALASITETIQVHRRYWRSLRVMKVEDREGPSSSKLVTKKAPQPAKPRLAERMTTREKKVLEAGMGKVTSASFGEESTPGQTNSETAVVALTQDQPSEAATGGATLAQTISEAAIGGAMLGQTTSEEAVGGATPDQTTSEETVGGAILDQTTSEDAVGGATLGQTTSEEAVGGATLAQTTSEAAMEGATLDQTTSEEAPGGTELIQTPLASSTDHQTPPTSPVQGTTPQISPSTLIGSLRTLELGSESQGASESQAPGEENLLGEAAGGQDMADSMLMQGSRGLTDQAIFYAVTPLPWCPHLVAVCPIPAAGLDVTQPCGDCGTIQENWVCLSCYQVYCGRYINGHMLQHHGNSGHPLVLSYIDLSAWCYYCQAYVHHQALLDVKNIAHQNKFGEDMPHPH
recombinant human HDAC1, sequence (Q13547 whole entry): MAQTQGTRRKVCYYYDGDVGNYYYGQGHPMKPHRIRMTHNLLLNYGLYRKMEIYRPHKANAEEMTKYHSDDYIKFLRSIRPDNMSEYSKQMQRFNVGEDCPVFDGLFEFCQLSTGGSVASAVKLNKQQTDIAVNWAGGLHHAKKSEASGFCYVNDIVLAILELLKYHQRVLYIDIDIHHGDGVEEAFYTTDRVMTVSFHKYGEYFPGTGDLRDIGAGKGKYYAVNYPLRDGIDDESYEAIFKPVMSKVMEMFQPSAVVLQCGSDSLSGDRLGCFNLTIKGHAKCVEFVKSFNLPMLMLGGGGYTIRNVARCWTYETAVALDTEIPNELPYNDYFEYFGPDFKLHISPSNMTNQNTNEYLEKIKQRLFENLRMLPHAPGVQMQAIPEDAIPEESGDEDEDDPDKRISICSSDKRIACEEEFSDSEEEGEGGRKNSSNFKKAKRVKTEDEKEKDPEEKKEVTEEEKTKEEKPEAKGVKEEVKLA

Row | IC50 (recombinant human HDAC6) [nM] | IC50 (recombinant human HDAC1) [nM] | SMILES
1 | 93 | > 200000 | CC(=O)N(Cc1ccco1)c1cccc(-c2cn(Cc3c(F)cc(-c4nnc(C(F)F)o4)cc3F)nn2)c1 [compound 183, N-(3-(1-(4-(5-(difluoromethyl)-1,3,4-oxadiazol-2-yl)-2,6-difluorobenzyl)-1H-1,2,3-triazol-4-yl)phenyl)-N-(furan-2-ylmethyl)acetamide]
2 | 161 | > 200000 | NC(=O)c1cccc(-c2cn(Cc3ccc(-c4nnc(C(F)F)o4)cc3)cn2)c1 [compound 223, 3-(1-(4-(5-(difluoromethyl)-1,3,4-oxadiazol-2-yl)benzyl)-1H-imidazol-4-yl)benzamide]
3 | 22 | > 1e+06 | Cn1c(N)nc2cc(-c3cn(Cc4cc(F)c(-c5nnc(C(F)F)o5)cc4F)nn3)ccc21 [compound 350, 5-[1-[[4-[5-(difluoromethyl)-1,3,4-oxadiazol-2-yl]-2,5-difluorophenyl]methyl]triazol-4-yl]-1-methylbenzimidazol-2-amine]
4 | 31 | > 200000 | CS(=O)(=O)NCCC(c1ccc(-c2nnc(C(F)F)o2)cn1)n1cc(-c2ccc(N)nc2)nn1 (stereo not drawn) [Compd. 293, N-(3-(4-(6-aminopyridin-3-yl)-1H-1,2,3-triazol-1-yl)-3-(5-(5-(difluoromethyl)-1,3,4-oxadiazol-2-yl)pyridin-2-yl)propyl)methanesulfonamide]
5 | 345 | 1e+06 | FC(F)c1nnc(-c2ccc(Cn3nnc(-c4ccc5cnccc5c4)n3)c(Cl)c2)o1 [compound 426, 2-(3-chloro-4-((5-(isoquinolin-6-yl)-2H-tetrazol-2-yl)methyl)phenyl)-5-(difluoromethyl)-1,3,4-oxadiazole]
6 | 151 | > 200000 | Fc1cc(-c2nnc(C(F)F)o2)cc(F)c1Cn1cc(-c2ccc(CN3CC(C(F)(F)F)C3)cc2)nn1 [compound 214, 2-(3,5-difluoro-4-((4-(4-((3-(trifluoromethyl)azetidin-1-yl)methyl)phenyl)-1H-1,2,3-triazol-1-yl)methyl)phenyl)-5-(difluoromethyl)-1,3,4-oxadiazole]
7 | 69 | > 200000 | NCc1ccc(-c2cn(Cc3ccc(-c4nnc(C(F)F)o4)cc3)nn2)cn1 [compound 155, (5-(1-(4-(5-(difluoromethyl)-1,3,4-oxadiazol-2-yl)benzyl)-1H-1,2,3-triazol-4-yl)pyridin-2-yl)methanamine]
8 | 488 | > 200000 | NC(=O)c1cccc(-c2nc(Cc3ccc(-c4nnc(C(F)F)o4)cc3)no2)c1 [compound 262, 3-(3-(4-(5-(difluoromethyl)-1,3,4-oxadiazol-2-yl)benzyl)-1,2,4-oxadiazol-5-yl)benzamide]
9 | 23 | > 200000 | NC(=O)c1cccc(-c2nnn(Cc3c(F)cc(-c4nnc(C(F)F)o4)cc3F)n2)c1 [compound 54, 3-(2-(4-(5-(difluoromethyl)-1,3,4-oxadiazol-2-yl)-2,6-difluorobenzyl)-2H-tetrazol-5-yl)benzamide]
10 | 42 | > 200000 | O=C1Nc2ccc(-c3nnn(Cc4ccc(-c5nnc(C(F)F)o5)cc4)n3)cc2NC12CCCC2 [compound 110, 7′-(2-(4-(5-(difluoromethyl)-1,3,4-oxadiazol-2-yl)benzyl)-2H-tetrazol-5-yl)-1′,4′-dihydro-3′H-spiro[cyclopentane-1,2′-quinoxalin]-3′-one]
11 | 277 | > 200000 | CN(C)c1nc2cc(-c3nnn(Cc4ccc(-c5nnc(C(F)F)o5)cc4)n3)ccc2o1 [compound 249, 5-(2-(4-(5-(difluoromethyl)-1,3,4-oxadiazol-2-yl)benzyl)-2H-tetrazol-5-yl)-N,N-dimethylbenzo[d]oxazol-2-amine]

Row | SMILES | IC50 (recombinant human HDAC6) [nM] | IC50 (recombinant human HDAC1) [nM]
12 | O=C(Nc1cc(-c2nnn(Cc3c(F)cc(-c4nnc(C(F)F)o4)cc3F)n2)ccc1OC(=O)N1CCOCC1)N1CCOCC1 [compound 196, 4-(2-(4-(5-(difluoromethyl)-1,3,4-oxadiazol-2-yl)-2,6-difluorobenzyl)-2H-tetrazol-5-yl)-2-(morpholine-4-carboxamido)phenyl morpholine-4-carboxylate] | 107 | > 200000
